The target of experiment [1] is T1, Recombinant human NK3 (hNK3) receptor (Homo sapiens, UniProt P29371).
T1 construct: expressed in transfected cells
T1 sequence (P29371 1-465): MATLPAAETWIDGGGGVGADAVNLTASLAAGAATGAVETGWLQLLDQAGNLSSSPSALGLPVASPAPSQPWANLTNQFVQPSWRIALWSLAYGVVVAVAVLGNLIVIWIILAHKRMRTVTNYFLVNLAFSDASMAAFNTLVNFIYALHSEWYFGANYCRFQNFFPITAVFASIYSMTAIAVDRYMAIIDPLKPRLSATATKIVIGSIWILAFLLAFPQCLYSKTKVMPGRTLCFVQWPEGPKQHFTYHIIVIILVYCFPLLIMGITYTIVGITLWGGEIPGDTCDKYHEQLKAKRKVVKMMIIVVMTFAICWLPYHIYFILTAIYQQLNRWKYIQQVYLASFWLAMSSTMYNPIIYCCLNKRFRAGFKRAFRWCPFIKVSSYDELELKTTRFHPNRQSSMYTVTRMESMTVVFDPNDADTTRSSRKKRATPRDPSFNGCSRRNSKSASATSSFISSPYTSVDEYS
Nature of the experiment: NK3 receptor affinity, [3H]SR142801 binding. The settings on record: hNK3 receptor membranes, [3H]SR142801 0.3 nM; read-out: pki NK3 (converted). The method, then:
Recombinant human NK3 (hNK3) receptor affinity was determined in a 96 well plate assay, using [^3H]SR142801 (final concentration 0.3 nM) to radiolabel the hNK3 receptor in the presence of 10 concentrations of competing compound or buffer. Non specific binding was determined using 10 μM SB222200. Assay buffer consisted of Tris-HCl (50 mM, pH 7.4), BSA (0.1%), MnCl2 (4 mM) and phosphoramidon (1 μM). Membrane preparations of hNK3 receptors (approximately 2.5 μg/well in a 96 well plate) were used to initiate the incubation for 90 min at room temperature. This assay was terminated by rapid filtration under vacuum through GF/C filters, presoaked for 90 min with PEI (0.3%), with 3×0.5 ml washes of ice-cold Tris buffer (50 mM, pH 7.4) containing 0.1% BSA. The radioactivity retained on the filters was measured by scintillation counting. All assays were performed in duplicate in at least two separate experiments.

Another experiment concerns the target human NK1 receptor (Homo sapiens, UniProt P25103). The experiment is described as follows: NK1 receptor affinity, [3H]substance P binding. The conditions noted are these: human NK1 receptors in CHO cells, [3H]substance P 0.6 nM; read-out: pki NK1 (converted). The method, then:
The affinity of test compounds for the NK1 receptor was evaluated at human NK1 receptors in CHO cells infected with the human NK1 receptor (using the Semliki virus expression system) and radiolabelled with [^3H]substance P (final concentration 0.6 nM). Binding assays were performed in HEPES buffer (50 mM, pH 7.4) containing BSA (0.04%) leupeptin (16.8 μg/ml), MnCl2 (3mM) and phosphoramidon (2 μM). Binding assays consisted of 250 μl of membrane suspension (approximately 1.5 μg/well in a 96 well plate), […] of buffer of displacing agent and 125 μl of [^3H]substance P. Displacement curves were determined with at least seven concentrations of the compound. The assay tubes were incubated for 60 min at room temperature after which time the tube contents were rapidly filtered under vacuum through GF/C filters presoaked for 60 min with PEI (0.3%) with 3×1 ml washes of HEPES buffer (50 mM, pH 7.4). The radioactivity retained on the filters was measured by scintillation counting. All assays were performed in duplicate in at least 2 separate experiments.

For experiment [2] the following is noted: phase II trial, cited from earlier work.

human NK1 receptor, sequence (P25103 whole entry): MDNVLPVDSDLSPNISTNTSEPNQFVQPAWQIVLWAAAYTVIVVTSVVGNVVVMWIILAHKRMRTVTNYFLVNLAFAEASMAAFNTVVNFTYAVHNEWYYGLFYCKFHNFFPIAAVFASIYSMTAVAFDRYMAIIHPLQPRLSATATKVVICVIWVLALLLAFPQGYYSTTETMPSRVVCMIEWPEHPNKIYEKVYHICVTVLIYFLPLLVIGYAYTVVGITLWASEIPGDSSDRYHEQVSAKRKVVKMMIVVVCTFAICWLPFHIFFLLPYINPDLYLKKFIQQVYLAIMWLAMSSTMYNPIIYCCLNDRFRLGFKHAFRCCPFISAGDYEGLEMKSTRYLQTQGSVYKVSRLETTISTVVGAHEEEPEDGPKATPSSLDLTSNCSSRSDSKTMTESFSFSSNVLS

Regarding `Cc1cc(F)ccc1-c1cc(C2CCCN(S(C)(=O)=O)C2)ncc1N(C)C(=O)C(C)(C)c1cc(C(F)(F)F)cc(C(F)(F)F)c1` (racemic) [Example 12, (RS)-2-(3,5-Bis-trifluoromethyl-phenyl)-N-[4-(4-fluoro-2-methyl-phenyl)-1′-methanesulfonyl-1′,2′,3′,4′,5′,6′-hexahydro-[2,3′]bipyridinyl-5-yl]-N-methyl-isobutyramide], the Ki in experiment [1] is 21.4 nM; at human NK1 receptor, 0.589 nM.
Take `CC(=O)N1CCCC(c2cc(-c3ccc(F)cc3C)c(N(C)C(=O)C(C)(C)c3cc(C(F)(F)F)cc(C(F)(F)F)c3)cn2)C1` (racemic) [Example 13, (RS)-N-[1′-Acetyl-4-(4-fluoro-2-methyl-phenyl)-1′,2′,3′,4′,5′,6′-hexahydro-[2,3′]bipyridinyl-5-yl]-2-(3,5-bis-trifluoromethyl-phenyl)-N-methyl-isobutyramide]: the Ki is 14.5 nM in experiment [1] and 1.62 nM at human NK1 receptor.
With `CN(C(=O)C(C)(C)c1cc(C(F)(F)F)cc(C(F)(F)F)c1)c1cnc(OCCO)cc1-c1ccccc1Cl` [Example 1, 2-(3,5-Bis-trifluoromethyl-phenyl)-N-[4-(2-chloro-phenyl)-6-(2-hydroxy-ethoxy)-pyridin-3-yl]-N-methyl-isobutyramide], the results for the Ki (in experiment [1]; at human NK1 receptor) were 19.5 nM and 0.562 nM, respectively.
As for `CN(C(=O)C(C)(C)c1cc(C(F)(F)F)cc(C(F)(F)F)c1)c1cnc(OC(CO)CO)cc1-c1ccccc1Cl` [Example 2, 2-(3,5-Bis-trifluoromethyl-phenyl)-N-[4-(2-chloro-phenyl)-6-(2-hydroxy-1-hydroxymethyl-ethoxy)-pyridin-3-yl]-N-methyl-isobutyramide], the Ki in experiment [1] was 9.12 nM; at human NK1 receptor, 1.23 nM.
On the same counts, the results for `Cc1cc(F)ccc1-c1cc(OC[C@@H]2CCCN2)ncc1N(C)C(=O)C(C)(C)c1cc(C(F)(F)F)cc(C(F)(F)F)c1` [Example 3, (S)-2-(3,5-Bis-trifluoromethyl-phenyl)-N-[4-(4-fluoro-2-methyl-phenyl)-6-(pyrrolidin-2-ylmethoxy)-pyridin-3-yl]-N-methyl-isobutyramide] are 23.4 nM and 0.851 nM.
With `Cc1cc(F)ccc1-c1cc(SCCO)ncc1N(C)C(=O)C(C)(C)c1cc(C(F)(F)F)cc(C(F)(F)F)c1` [Example 4, 2-(3,5-Bis-trifluoromethyl-phenyl)-N-[4-(4-fluoro-2-methyl-phenyl)-6-(2-hydroxy-ethylsulfanyl)-pyridin-3-yl]-N-methyl-isobutyramide], the Ki in experiment [1] is 8.51 nM; at human NK1 receptor, 2.34 nM.
Take `Cc1cc(F)ccc1-c1cc(-c2cccnc2)ncc1N(C)C(=O)C(C)(C)c1cc(C(F)(F)F)cc(C(F)(F)F)c1` [Example 5, 2-(3,5-Bis-trifluoromethyl-phenyl)-N-[4-(4-fluoro-2-methyl-phenyl)-[2,3′]bipyridinyl-5-yl]-N-methyl-isobutyramide]: the Ki was 16.2 nM in experiment [1] and 1.29 nM at human NK1 receptor.
For `Cc1cc(F)ccc1-c1cc(-c2ccc[n+]([O-])c2)ncc1N(C)C(=O)C(C)(C)c1cc(C(F)(F)F)cc(C(F)(F)F)c1` [Example 6, 2-(3,5-Bis-trifluoromethyl-phenyl)-N-[4-(4-fluoro-2-methyl-phenyl)-1′-oxy-[2,3′]bipyridinyl-5-yl]-N-methyl-isobutyramide] the same measures were 24.5 nM and 0.977 nM.
As to `Cc1cc(F)ccc1-c1cc(-c2cccc(CO)c2)ncc1N(C)C(=O)C(C)(C)c1cc(C(F)(F)F)cc(C(F)(F)F)c1` [Example 7, 2-(3,5-Bis-trifluoromethyl-phenyl)-N-[4-(4-fluoro-2-methyl-phenyl)-6-(3-hydroxymethyl-phenyl)-pyridin-3-yl]-N-methyl-isobutyramide], the Ki in experiment [1] was 6.92 nM; at human NK1 receptor it was 1.2 nM.
`Cc1cc(F)ccc1-c1cc(-c2cncc(CO)c2)ncc1N(C)C(=O)C(C)(C)c1cc(C(F)(F)F)cc(C(F)(F)F)c1` [Example 8, 2-(3,5-Bis-trifluoromethyl-phenyl)-N-[4-(4-fluoro-2-methyl-phenyl)-5′-hydroxymethyl-[2,3′]bipyridinyl-5-yl]-N-methyl-isobutyramide]: the figures for the Ki (in experiment [1]; at human NK1 receptor) were 6.17 nM and 1.82 nM, respectively.
On the same counts, the results for `Cc1cc(F)ccc1-c1cc(-c2ccnc(CO)c2)ncc1N(C)C(=O)C(C)(C)c1cc(C(F)(F)F)cc(C(F)(F)F)c1` [Example 9, 2-(3,5-Bis-trifluoromethyl-phenyl)-N-[4-(4-fluoro-2-methyl-phenyl)-2′-hydroxymethyl-[2,4′]bipyridinyl-5-yl]-N-methyl-isobutyramide] are 11.5 nM and 1.55 nM.
As for `Cc1cc(F)ccc1-c1cc(C2=CCN(S(C)(=O)=O)CC2)ncc1N(C)C(=O)C(C)(C)c1cc(C(F)(F)F)cc(C(F)(F)F)c1` [Example 10, 2-(3,5-Bis-trifluoromethyl-phenyl)-N-[4-(4-fluoro-2-methyl-phenyl)-1′-methanesulfonyl-1′,2′,3′,6′-tetrahydro-[2,4′]bipyridinyl-5-yl]-N-methyl-isobutyramide], the Ki in experiment [1] was 2.63 nM; on human NK1 receptor it was 0.617 nM.
Regarding `Cc1cc(F)ccc1-c1cc(C2CCN(S(C)(=O)=O)CC2)ncc1N(C)C(=O)C(C)(C)c1cc(C(F)(F)F)cc(C(F)(F)F)c1` [Example 11, 2-(3,5-Bis-trifluoromethyl-phenyl)-N-[4-(4-fluoro-2-methyl-phenyl)-1′-methanesulfonyl-1′,2′,3′,4′,5′,6′-hexahydro-[2,4′]bipyridinyl-5-yl]-N-methyl-isobutyramide], the figures for the Ki (in experiment [1]; on human NK1 receptor) were 6.46 nM and 1.1 nM, respectively.
In the case of `Cc1cc(F)ccc1-c1cc(C2=CCSCC2)ncc1N(C)C(=O)C(C)(C)c1cc(C(F)(F)F)cc(C(F)(F)F)c1` [Example 14, 2-(3,5-Bis-trifluoromethyl-phenyl)-N-[6-(3,6-dihydro-2H-thiopyran-4-yl)-4-(4-fluoro-2-methyl-phenyl)-pyridin-3-yl]-N-methyl-isobutyramide], the Ki is 14.1 nM in experiment [1] and 1.15 nM on human NK1 receptor.
On the same counts, the results for `Cc1cc(F)ccc1-c1cc(C2=CCS(=O)(=O)CC2)ncc1N(C)C(=O)C(C)(C)c1cc(C(F)(F)F)cc(C(F)(F)F)c1` [Example 15, 2-(3,5-Bis-trifluoromethyl-phenyl)-N-[6-(1,1-dioxo-1,2,3,6-tetrahydro-1λ^6-thiopyran-4-yl)-4-(4-fluoro-2-methyl-phenyl)-pyridin-3-yl]-N-methyl-isobutyramide] are 6.76 nM and 0.589 nM.
On to `Cc1cc(F)ccc1-c1cc(C2CCS(=O)(=O)CC2)ncc1N(C)C(=O)C(C)(C)c1cc(C(F)(F)F)cc(C(F)(F)F)c1` [Example 16, 2-(3,5-Bis-trifluoromethyl-phenyl)-N-[6-(1,1-dioxo-hexahydro-1λ^6-thiopyran-4-yl)-4-(4-fluoro-2-methyl-phenyl)-pyridin-3-yl]-N-methyl-isobutyramide], for which the Ki was 16.6 nM in experiment [1] and 1.38 nM at human NK1 receptor.
Take `CC(=O)N(C)C1(c2ccccc2)CCN(CCC[C@]2(c3ccc(Cl)c(Cl)c3)CCCN(C(=O)c3ccccc3)C2)CC1` [SR 142,801, Osanetant]: the “activity on positive symptoms of schizophrenia” value in experiment [2] (altered behaviour, delusion, hallucinations, extreme emotions, excited motor activity, incoherent speech) was “active on positive symptoms of schizophrenia”. In addition, in experiment [2] (depression, anhedonia, social isolation or memory and attention deficits), the “activity on negative symptoms of schizophrenia” value was “inactive in the treatment of negative symptoms”.

(Values after patent publication US20060030600A1, “Dual NK1/NK3 receptor antagonists for the treatment of schizophrenia” (priority 2004, published 2006).)
